Results from the NIST ThermoML archive (doi:10.1021/acs.jced.6b00399).
Where a name gives a salt, the structure may show the parent alone. ± gives the expanded uncertainty stated by the source.

How the values were obtained:
[1] = xn = mol fraction of the nth substance listed; conditions: 101.3 kPa, Liquid, x1 = 0.66; for mass density: Pycnometric method
[2] = Liquid; for mass density: 101.3 kPa, Pycnometric method; for viscosity: 298.15 K, 101.33 kPa, Capillary tube (Ostwald / Ubbelohde) method

| mass density ([1]; 293.15 K) [kg/m3] | viscosity ([1]; 298.15 K, Capillary tube (Ostwald / Ubbelohde) method) [mPa·s] | mass density ([1]; 303.15 K) [kg/m3] | mass density ([1]; 313.15 K) [kg/m3] | mass density ([1]; 323.15 K) [kg/m3] | mass density ([2]; 293.15 K) [kg/m3] | viscosity [2] [mPa·s] | mass density ([2]; 303.15 K) [kg/m3] | mass density ([2]; 313.15 K) [kg/m3] | mass density ([2]; 323.15 K) [kg/m3] | SMILES |
| --- | --- | --- | --- | --- | --- | --- | --- | --- | --- | --- |
| 1215.1 ± 2.8 | 20.05 ± 0.84 | 1206.7 ± 2.8 | 1198.2 ± 2.8 | 1189.7 ± 2.8 |  |  |  |  |  | OC1COCOC1 [1,3-dioxan-5-ol] + OCC1COCO1 |
|  |  |  |  |  | 1137.1 ± 2.6 | 32.1 ± 0.64 | 1131.3 ± 2.6 | 1122.4 ± 2.6 | 1114 ± 2.5 | CCOC(=O)CC(O)(CC(=O)OCC)C(=O)OCC [triethyl citrate] |

Further lines, the compound ahead of its results:

| SMILES | mass density ([1]; 293.15 K) [kg/m3] | viscosity ([1]; 298.15 K, Capillary tube (Ostwald / Ubbelohde) method) [mPa·s] | mass density ([1]; 303.15 K) [kg/m3] | mass density ([1]; 313.15 K) [kg/m3] | mass density ([1]; 323.15 K) [kg/m3] | mass density ([2]; 293.15 K) [kg/m3] | viscosity [2] [mPa·s] | mass density ([2]; 303.15 K) [kg/m3] | mass density ([2]; 313.15 K) [kg/m3] | mass density ([2]; 323.15 K) [kg/m3] |
| --- | --- | --- | --- | --- | --- | --- | --- | --- | --- | --- |
| CC1(C)OCC(CO)O1 (stereo not given) [2,2-dimethyl-1,3-dioxolane-4-methanol] |  |  |  |  |  | 1067.8 ± 2.4 | 10.06 ± 0.15 | 1058.9 ± 2.4 | 1049.9 ± 2.4 | 1040.8 ± 2.4 |
| CC(=O)OCC(COC(C)=O)OC(C)=O [glyceryl triethanoate] |  |  |  |  |  | 1158.3 ± 2.5 | 16.36 ± 0.68 | 1147.3 ± 2.4 | 1136.6 ± 2.4 | 1125.7 ± 2.4 |
| CCOC(=O)CC(CC(=O)OCC)(OC(C)=O)C(=O)OCC [triethyl acetyl citrate] |  |  |  |  |  | 1142.1 ± 3.4 | 46.55 ± 1.2 | 1134.1 ± 3.3 | 1124.2 ± 3.3 | 1112.9 ± 3.3 |
